Measurements published in patent publication US5541213A, “Propenoic acid derivatives diazole propenoic acid compounds which have useful pharmaceutical utility” (Eisai Co., Ltd., priority 1993, dated 1996).

Legend:
[1] = test system: Fisher 344 male rats (glycerol-induced renal trouble model); assay: Activity against glycerol-induced renal trouble model; format: in vivo, rat; conditions: 0.3 mg/5 ml/kg orally 60 minutes before 50% glycerol i.m. 10 ml/kg, blood sampled after about 24 hours
Description: Fisher 344 male rats aged 8 weeks and weighing 200 to 230 g were kept without water for 18 hours prior to the use. Thereafter, the test compound was orally administered forcedly to the test group of rats in an amount of 0.3 mg/5 ml/kg, while a solvent [2% Tween 80 solution] to the control group of rats in an amount of 5 ml/kg. After 60 minutes from the administration of the test compound or solvent, a 50% solution of glycerol in physiological saline was intramuscularly administered to each rat through both left and right femoral muscles in an amount of 10 ml of kg. After the completion of the intramuscular administration, the rats were watered. After about 24 hours, the rats were etherized and blood was sampled from each rat. The blood samples thus prepared were each centrifuged to collect serum, which was analyzed for urea nitrogen and creatinine.

[2] = test system: Fisher 344 male rats (cisplatin-induced trouble model); assay: Activity against cisplatin-induced gastric trouble model; format: in vivo, rat; conditions: cisplatin 6 mg/5 ml/kg s.c., 1 mg/5 ml/kg orally, repeated over four days, blood sampled on the fifth day
Description: Cisplatin was subcutaneously administered to Fisher 344 male rats aged 7 weeks and weighing 170 to 200 g in an amount of 6 mg/5 ml/kg. Immediately after the administration, the test compound was orally administered forcedly to the test group of rats in an amount of 1 mg/5 ml/kg, while a solvent (2% Tween 80 solution) to the control group of rats in an amount of 5 ml/kg. Six hours after the administration, the administration of the test compound and the solvent to the test group and the control group respectively was conducted in a similar manner to that described above. Thereafter, the same administration was repeated on the next day twice, and on the third and forth days each once. On the fifth day, the rats were etherized and blood was sampled from each rat. The blood samples thus prepared were analyzed for serum urea nitrogen and creatinine.

[3] = test system: Fisher male rats; assay: Diuretic activity; format: in vivo, rat; conditions: 1 mg/25 ml/kg orally in 0.4% Tween 80 in physiological saline; urine collected for 2 hours
Description: Fisher male rats aged 8 weeks and weighing 190 to 210 g were fasted for 18 hours prior to the use. The test compound was orally administered forcedly to the test group of rats in a state dispersed in a 0.4% solution of Tween 80 in physiological saline in an amount of 1 mg/25 ml/kg, while a 0.4% solution of Tween 80 in physiological saline to the control group of rats in the same amount as that administered to the test group. Immediately after the administration, the rats were put in individual metabolism cages respectively to collect urine from each rat for 2 hours. The urinary volume of each rat was determined and thereafter the urine was examined for uric acid concentration to calculate the amount of uric acid egested. The control group was composed of six rats, while the test group three rats. The amounts of uric acid excreted from the rats of each group were averaged out to determine the increment of the excretion of uric acid based on the averages.

[4] = molecular target: T1, right atrium of Hartley male guinea pigs (heart rate lowering effect of adenosine) (Cavia porcellus, UniProt P47745); assay: Adenosine antagonism (heart rate lowering effect of adenosine in isolated right atrium); format: cell-based; conditions: guinea pig right atrium, 37° C., dipyridamole added, 20 minutes with test compound, adenosine added cumulatively; spontaneous heart rate; read-out: pA2 value (adenosine antagonism) (converted)
T1 construct: the right atrium was extirpated from the heart; from tissue; host or cells: isolated right atrium of Hartley male guinea pigs
T1 sequence (P47745 1-326): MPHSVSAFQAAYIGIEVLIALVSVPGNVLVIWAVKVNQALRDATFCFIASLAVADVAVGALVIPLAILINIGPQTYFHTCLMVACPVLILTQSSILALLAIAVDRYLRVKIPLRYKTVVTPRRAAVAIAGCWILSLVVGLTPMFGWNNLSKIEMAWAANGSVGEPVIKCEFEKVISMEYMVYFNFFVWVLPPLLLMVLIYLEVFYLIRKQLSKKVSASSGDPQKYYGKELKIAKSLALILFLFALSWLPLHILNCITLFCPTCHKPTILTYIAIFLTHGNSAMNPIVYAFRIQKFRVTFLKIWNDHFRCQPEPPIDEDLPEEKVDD
Description: Hartley male guinea pigs weighing 250 to 400 g were beaten to death. The heart was immediately extirpated from each guinea pig and put in the Krebs-Heuseleit solution saturated with a gas mixture comprising 95% of oxygen and 5% of carbon dioxide. Thereafter, the right atrium was extirpated from the heart. The samples thus preparer were each vertically suspended in a Magnus tube (capacity: 6 ml) filled with a nutrient liquid at 37° C. and the same gas mixture as that used above was passed through the tube.
The change in tension was isometrically determined under a load of about 0.5 g and the spontaneous heart rate was measured and recorded with a cardiotachometer by utilizing the signal of the change as a trigger.
After the stabilization of the sample, 10^-5 mol of dipyridamole was added to each Magnus tube. Thereafter, the test compound was added directly to each of the Magnus tubes of the test group in a state dissolved in DMSO, while a solvent (DMSO) to each of the Magnus tubes of the control group in the same amount as that added to each Magnus tube of the test group. The resulting Magnus tubes was allowed to stand for 20 minutes. […]
The EC50 value with respect to the heart rate lowering effect of adenosine was calculated and the adenosine antagonism was represented by pA2 value (-log M).

O=C(/C=C/c1c[nH]nc1-c1cccc(F)c1)NC(Cc1ccccn1)c1cc(Cl)ccn1 (single isomer, unassigned; (+)) [Example 2, (+)-(E)-N-{1-(4-Chloropyridin-2-yl)-2-(pyridin-2-yl)ethyl}-3-{3-(3-fluorophenyl)-1H-pyrazol-4-yl}-2-propenamide]
serum creatinine ([1]; *P < 0.05 vs control (4.76 ± 0.21)): 3.47 ± 0.30 mg/dL
Serum urea nitrogen ([1]; *P < 0.05 vs control (185.4 ± 3.2)): 142.4 ± 10.5 mg/dL
serum creatinine ([2]; *P < 0.05 vs control (2.15 ± 0.16)): 1.49 ± 0.04 mg/dL
Serum urea nitrogen ([2]; *P < 0.05 vs control (93.4 ± 6.5)): 52.9 ± 2.3 mg/dL
amount of uric acid excreted (control group taken as 100%) [3]: 166%
urinary volume of the test group (control group taken as 100%) [3]: 605%
Kb [4]: 0.0389 nM
